Earlier results on one substance are cited in patent publication US20250121046A1, “MRNA THERAPEUTIC COMPOSITIONS” (Nutcracker Therapeutics, Inc., priority 2022, published 2025).

In series [1] the test system is cervical cancer whose tumors express PD-L1 (CPS≥1). The settings on record: in combination with chemotherapy, with or without bevacizumab; cited from earlier work.
Series [2] shares this test system. The following applies: single agent, disease progression on or after chemotherapy, KEYNOTE-158; cited from earlier work.

Turning to pembrolizumab [KEYTRUDA], the overall survival entry in series [1] is reported as “improvements”. In series [2], the objective response entry was “around 14%”.
